According to patent publication US4873250A, “Antimicrobial compound and compositions particulary effective against candida albicans” (The University of Mississippi, priority 1988, dated 1989):
Converted amounts (≈) assume the structure as drawn. Values belong to the compound of their own block, whether it stands above or below them.

Assays:
Candida albicans 10231 = experiment: Minimum inhibitory concentration (MIC), twofold serial broth dilution assay, Candida albicans ATCC 10231; assay type: cell-based; settings: ATCC10231, 24 and 48 hours at 37°
Method: (§1) The method used to determine the minimum inhibitory concentration (MIC) of the inventive compound was a twofold serial broth dilution assay in yeast nitrogen broth. In addition to Candida albicans B311, the MIC values for onychine were also determined for two additional strains of Candida albicans: ATCC 10231 and a clinical isolate, designated WH. Also tested were Mycobacterium smegmatis 607, Bacillus subtilis, 6633, Cryptococcus neoformans 32264, Aspergillus flavus 9170, Aspergillus fumigatus 26934, and Trichophyton mentagrophytes 9972. The inventive compound was initally tested using a concentration of 100 μg/ml in the first tube. The compound was added to sterile Sabourauddextrose broth as a solution in DMSO. The inoculum for the MIC determination was prepared as described for qualitative evaluation. Using a calibrated sterile wire loop, 10μl of the 10^6 CFU/ml suspension of Candida albicans was used as inoculum for each tube. The MIC value was taken as the lowest concentration of compound that inhibited the growth of the test organisms after 24 and 48 hours of incubation at 37°. The antifungal agents amphotericin-B and ketoconazole were included as standards in each screen. The results of the MIC testing for various pathogenic agents is set out in Table I.

Candida albicans [1] = experiment: In vivo disseminated Candida albicans infection in mice, CFU recovered from the kidneys; parameters: species or system outbred mice; settings: for % Reduction: kidney CFU versus vehicle control; for CFU/g × 10^6 (range): kidney
Method: In the in vivo testing of the invention onychine, outbred mice were used. A disseminated infection of Candida albicans in the test animals was achieved by intravenous injection of 10^6 CFU of the pathogen. The organism is rapidly cleared from the blood and most tissues, except the kidney which is the primary target organ for the disseminated infection in mice. It is known than an inoculum of 10^6 CFU will produce a disseminated infection in outbred mice within […]. Onychine was administered to infected mice by intraperitoneal injection 7 hrs post-inoculation. The vehicle used for administering the compound of the invention was a mixture consisting of 50% USP water, 40% propylene glycol and 10% absolute ethonol.

Candida albicans [2] = experiment: Anticandidal activity, agar-well diffusion assay (zone of inhibition); assay type: cell-based; settings: three test strains of Candida albicans; pure compounds at 1 mg/ml; 37° for 24 hours
Method: In vitro evaluation of the anticandidal activity of the inventive compound and compositions was carried out using the agar-well diffusion assay as follows:
Candida albicans NIH B311 used to induce experimental disseminated candidiasis was used for the initial qualitative evaluation of anticandidal activity. The organism was grown in Sabouraud-dextrose broth (SDB) for 14 hours at 37°, at which time the cells were harvested by centrifugation (4°, 2000 rpm, 3 min). After centrifugation, the cells were washed and suspended in sterile 0.9% saline to give a final concentration of 10^6 colony forming units (CFU) per ml (adjusted using a hemocytometer). Culture plates (15×100 mm) for the qualitative assay were prepared from 25 ml of Sabouraud-dextrose agar. Using sterile cotton swabs, the plates were streaked with the suspension (10^6 CFU/ml) of Candida albicans B311. Cylindrical plugs were removed from the agar plates by means of a sterile cork borer to produce wells with a diameter of approximately 11 mm. To the well was added 100 μl of solution or suspension of an extract, fraction, or pure compound. Crude extracts and fractions were tested at a concentration of 20 mg/ml, whereas pure compounds were tested at 1 mg/ml. […] Anticandidal activity was recorded as the width (in mm) of the zone of inhibition following incubation of the plates at 37° for 24 hours. […]

Candida albicans B311 = experiment: Minimum inhibitory concentration (MIC), twofold serial broth dilution assay, Candida albicans B311; assay type: cell-based; settings: yeast nitrogen broth, 24 and 48 hours at 37°
Method: as §1

Candida albicans WH = experiment: Minimum inhibitory concentration (MIC), twofold serial broth dilution assay, Candida albicans WH (clinical isolate); assay type: cell-based; settings: 24 and 48 hours at 37°
Method: as §1

[3] = under varying conditions; cited from earlier work
Candida albicans [4] = settings: reported in Journal of Natural Products, Vol. 50, No. 5, pp. 961-964, 1987; cited from earlier work

MIC (Candida albicans 10231): 1.56 µg/mL (≈ 7.99 µM) | MIC (Candida albicans B311): 3.12 µg/mL (≈ 16 µM) | MIC (Candida albicans WH): 25 µg/mL (≈ 128 µM)
SMILES: Cc1ccnc2c1C(=O)c1ccccc1-2 [Onychine, 1-methyl-4-azafluoren-9-one]
number of CFU of Candida albicans recovered from the kidneys versus vehicle treated control mice (Candida albicans [1]; 0.1 mg/kg intraperitoneal 7 hrs post-inoculation): significantly lower | % Reduction (Candida albicans [1]; 0.1 mg/kg intraperitoneal, n=8, P 0.047): 95.5% | % Reduction (Candida albicans [1]; 0.5 mg/kg intraperitoneal, n=7, P 0.082): 86.7% | CFU/g × 10^6 (range) (Candida albicans [1]; 0.1 mg/kg intraperitoneal 7 hrs post-inoculation, n=8, range 0.05-0.3, P 0.047): 0.17 CFU/g × 10^6 | CFU/g × 10^6 (range) (Candida albicans [1]; 0.5 mg/kg intraperitoneal 7 hrs post-inoculation, n=7, range 0.11-1.05, P 0.082): 0.50 CFU/g × 10^6 | zone of inhibition (Candida albicans [2]): remarkable zone of inhibition

SMILES: CC1C=CC=CC=CC=CC=CC=CC=CC(OC2OC(C)C(O)C(N)C2O)CC2OC(O)(CC(O)CC(O)C(O)CCC(O)CC(O)CC(=O)OC(C)C(C)C1O)CC(O)C2C(=O)O (centres unmarked) [amphotericin-B]
side effects in humans [3]: fever, anorexia, nausea and vomiting, diarrhea, muscle and joint pain, phlebitis and thiophlebitis, anemia, abnormal renal function, anuria, cardiovascular distress, hypertension and hypotension

SMILES: c1ccc2c(c1)-c1nccc3ccnc-2c13 [eupolauridine]
anticandidal properties (Candida albicans [4]): possibly remarkable anticandidal properties
